From patent US8906868B2, “Aminoglycoside derivatives” (Rempex Pharmaceuticals, Inc., priority 2010, dated 2014)
Converted amounts (≈) assume the structure as drawn. Where two headings read alike, the source gives them in different places.

Columns and labels:
Sa 287 aac(6′) + aph(2″) = test: microbe, parasite or virus in culture; assay type: cell-based, Staphylococcus aureus; conditions: Staphylococcus aureus, 18 h; Table 5; read-out: Compound MIC on Bacterial Strains: Staphylococcus aureus Sa 287 aac(6′) + aph(2″)
Description: (§1) To compare microbiological activity of the test compounds, minimum inhibitory concentrations (MIC.s) were determined. Antibiotic MICs were obtained using the broth microdilution method according to Clinical and Laboratory Standards Institute (CLSI) approved guidelines (Methods for dilution antimicrobial susceptibility tests for bacteria that grow aerobically; approved standard—7th ed. CLSI document M7-A7. Clinical and Laboratory Standards Institute, Wayne, Pa., incorporated herein by reference in its entirety). Antibiotics were dissolved as specified by CLSI (Performance standards for antimicrobial susceptibility testing; Seventeenth informational supplement. CLSI document M100-S17. Clinical and Laboratory Standards Institute, Wayne, Pa., incorporated herein by reference in its entirety), and were serially diluted 2-fold in cation adjusted Mueller Hinton Broth (CaMHB) at 2× concentration. Bacterial inoculums were prepared in CaMHB by suspension of a colony from an agar plate that was prepared the previous day to obtain a final concentration of 5×10^5CFU/ml. The plates were incubated for 18 hours at 35° C. […] MIC.s were determined by reading the turbidity of plate wells using a SpectraMax Plus384 plate reader (Molecular Devices, Sunnyvale, Calif., USA) at 600 nm and were confirmed by visual inspection.

ECM6003 rmtB = test: microbe, parasite or virus in culture; assay type: cell-based, Escherichia coli; conditions: Escherichia coli; Table 3; read-out: Compound MIC on Bacterial Strains: ECM6003 rmtB
Description: as §1
(§2) Activity of the test compounds was determined using QC strains and strains with known aminoglycoside resistance mechanisms (TABLE 3). This specific panel contained strains expressing enzymes that covalently modify N2″, N3 and N3′ positions.
The panel also contained a strain expressing ribosomal RNA methylase, RmtB.

EC1001 acc(6′)-Ib = test: microbe, parasite or virus in culture; assay type: cell-based, Escherichia coli; conditions: Escherichia coli; Table 4; read-out: Compound MIC on Bacterial Strains: Escherichia coli EC1001 acc(6′)-Ib
Description: as §1

[1] = system: ECM6007 aac(6′) + aph(2″); test: microbe, parasite or virus in culture; assay type: cell-based, Escherichia coli; conditions: Escherichia coli, 18 h; Table 4; read-out: Compound MIC on Bacterial Strains: Escherichia coli ECM6007 aac(6′) + aph(2″)
Description: as §1

[2] = system: Klebsiella pneumonia (ATCC 43816); test: MIC, broth microdilution; conditions: Klebsiella pneumoniae, ATCC43816, read-out: Compound MIC on Bacterial Strains: K. pneumonia ATCC 43816
[3] = system: Staphylococcus aureus (ATCC 29213); test: MIC, broth microdilution; conditions: Staphylococcus aureus
[4] = system: Escherichia coli (ATCC 25922); test: MIC, broth microdilution; conditions: Escherichia coli
[5] = system: Acinetobacter baumannii (ATCC 19606); test: MIC, broth microdilution; conditions: Acinetobacter baumannii, ATCC19606, read-out: Compound MIC on Bacterial Strains: A. baumannii ATCC 19606
EC1002 aph(3′)-IV = test: organism not typed; assay type: cell-based; conditions: read-out: Compound MIC on Bacterial Strains: EC1002 aph(3′)-IV
Description: as §1, §2

[6] = system: Pseudomonas aeruginosa (ATCC 27853); test: MIC, broth microdilution; conditions: Pseudomonas aeruginosa
ECM6006 aph(3′)-III = test: microbe, parasite or virus in culture; assay type: cell-based, Escherichia coli; conditions: Escherichia coli, read-out: Compound MIC on Bacterial Strains: ECM6006 aph(3′)-III
Description: as §1, §2

ECM6010 ant(2″)-I = test: microbe, parasite or virus in culture; assay type: cell-based, Escherichia coli; conditions: Escherichia coli, read-out: Compound MIC on Bacterial Strains: ECM6010 ant(2″)-I
Description: as §1, §2

ECM6009 aac(3)-II = test: microbe, parasite or virus in culture; assay type: cell-based, Escherichia coli; conditions: Escherichia coli, read-out: Compound MIC on Bacterial Strains: ECM6009 aac(3)-II
Description: as §1, §2

ECM6011 aph(3′)-I = test: microbe, parasite or virus in culture; assay type: cell-based, Escherichia coli; conditions: Escherichia coli, read-out: Compound MIC on Bacterial Strains: ECM6011 aph(3′)-I
Description: as §1, §2

ACM1006 acc(6′)-Ib = test: microbe, parasite or virus in culture; assay type: cell-based, Acinetobacter baumannii; conditions: Acinetobacter baumannii; Table 4; read-out: Compound MIC on Bacterial Strains: Acinetobacter baumannii ACM1006 acc(6′)-Ib
Description: as §1

PAM3073 aac(6′)-I = test: microbe, parasite or virus in culture; assay type: cell-based, Pseudomonas aeruginosa; conditions: Pseudomonas aeruginosa, Table 5; read-out: Compound MIC on Bacterial Strains: Pseudomonas aeruginosa PAM3073 aac(6′)-I
Description: as §1

PAM3072 aac(6′)-II = test: microbe, parasite or virus in culture; assay type: cell-based, Pseudomonas aeruginosa; conditions: Pseudomonas aeruginosa, Table 5; read-out: Compound MIC on Bacterial Strains: Pseudomonas aeruginosa PAM3072 aac(6′)-II
Description: as §1

ACM1005 ATCC 19004 = test: MIC, broth microdilution; assay type: cell-based, Acinetobacter baumannii; conditions: Acinetobacter baumannii, ATCC19004; Table 4; read-out: Compound MIC on Bacterial Strains: Acinetobacter baumannii ACM1005 ATCC 19004
Description: as §1

[7] = ATCC29213, read-out: Compound MIC on Bacterial Strains: Staphylococcus aureus SAM1000 ATCC 29213, Table 5
[8] = ATCC25922, read-out: Compound MIC on Bacterial Strains: ECM6000 ATCC 25922
[9] = ATCC27853, read-out: Compound MIC on Bacterial Strains: Pseudomonas aeruginosa PAM3034 ATCC 27853

| Compound | MIC (Sa 287 aac(6′) + aph(2″)) [µg/mL] | MIC (ECM6003 rmtB) [µg/mL] | MIC [3, 7] [µg/mL] | MIC [4, 8] [µg/mL] | MIC (EC1002 aph(3′)-IV) [µg/mL] | MIC [6, 9] [µg/mL] | MIC (ECM6006 aph(3′)-III) [µg/mL] | MIC (ECM6010 ant(2″)-I) [µg/mL] | MIC (ECM6009 aac(3)-II) [µg/mL] | MIC (ECM6011 aph(3′)-I) [µg/mL] | MIC (PAM3073 aac(6′)-I) [µg/mL] | MIC (PAM3072 aac(6′)-II) [µg/mL] | other results |
| --- | --- | --- | --- | --- | --- | --- | --- | --- | --- | --- | --- | --- | --- |
| CNC[C@@H]1CCC(N)[C@@H](OC2C(O)C(O[C@H]3OCC(C)(O)[C@H](NC)C3O)[C@H](NC(=O)[C@@H](O)C(O)CN)C[C@@H]2N)O1 (stereo in doubt) [Compound 23, (2S,3R)-4-amino-N-((1R,2S,3S,4R,5S)-5-amino-4-((2R,3R,6S)-3-amino-6-((methylamino)methyl)tetrahydro-2H-pyran-2-yloxy)-2-((2R,3R,4R,5R)-3,5-dihydroxy-5-methyl-4-(methylamino)tetrahydro-2H-pyran-2-yloxy)-3-hydroxycyclohexyl)-2,3-dihydroxybutanamide] | 1 to 8 | 1 to 8 (≈ 1.72 to 13.8 µM) | 1 to 8 (≈ 1.72 to 13.8 µM) | 1 to 8 (≈ 1.72 to 13.8 µM) | 1 to 8 (≈ 1.72 to 13.8 µM) | 1 to 8 (≈ 1.72 to 13.8 µM) | 1 to 8 (≈ 1.72 to 13.8 µM) | 1 to 8 (≈ 1.72 to 13.8 µM) | 1 to 8 (≈ 1.72 to 13.8 µM) | 1 to 8 (≈ 1.72 to 13.8 µM) | 1 to 8 (≈ 1.72 to 13.8 µM) | > 8 | MIC (EC1001 acc(6′)-Ib): 1 to 8 µg/mL (≈ 1.72 to 13.8 µM); MIC [1]: < 1 µg/mL; MIC [2]: < 1 µg/mL; MIC ([3]; ATCC29213, read-out: Compound MIC on Bacterial Strains: S. aureus ATCC 29213, QC strain, Table 2): < 1 µg/mL; MIC ([4]; ATCC25922, read-out: Compound MIC on Bacterial Strains: E. coli ATCC 25922): < 1 µg/mL; MIC ([4]; ATCC25922, read-out: Compound MIC on Bacterial Strains: Escherichia coli ECM6000 ATCC 25922): 1 to 8 µg/mL (≈ 1.72 to 13.8 µM); MIC [5]: > 8 µg/mL; MIC ([6]; ATCC27853, read-out: Compound MIC on Bacterial Strains: P. aeruginosa ATCC 27853): 1 to 8 µg/mL (≈ 1.72 to 13.8 µM); MIC (ACM1006 acc(6′)-Ib): 1 to 8 µg/mL (≈ 1.72 to 13.8 µM); MIC (ACM1005 ATCC 19004): 1 to 8 µg/mL (≈ 1.72 to 13.8 µM) |
| CN[C@@H]1C(O)[C@@H](OC2C(O)C(O[C@H]3O[C@H](CNCCO)CCC3N)[C@@H](N)C[C@H]2NC(=O)[C@@H](O)[C@@H](O)CN)OCC1(C)O (stereo partly shown) [Compound 4] | 1 to 8 | > 8 | 1 to 8 (≈ 1.64 to 13.1 µM) | 1 to 8 (≈ 1.64 to 13.1 µM) | 1 to 8 (≈ 1.64 to 13.1 µM) | 1 to 8 (≈ 1.64 to 13.1 µM) | 1 to 8 (≈ 1.64 to 13.1 µM) | 1 to 8 (≈ 1.64 to 13.1 µM) | < 1 | < 1 | 1 to 8 (≈ 1.64 to 13.1 µM) | > 8 | – |
